Data from patent US11992009B2, “Pesticide-containing soil disinfestation material without use of fumigant” (priority 2020, dated 2024).

Experiments:
[1] = Lab soil pesticide release testing; format: physicochemical; conditions: for Pesticide content of fumigant-free soil disinfestation materials after set time on Soil: HPLC, LoQ 0.25 g/ha
Procedure: 200 g of dry soil is placed in rectangular thin layer chromatography chamber of 27×7×26 cm with lid and 20 g water is added to the soil. A 58 cm^2 of a polymer composite material sample is placed on the humid soil and weight down by a glass plate with a contact pressure of […] to simulate similar contact conditions with the soil as in the field after application of the polymer composite material like a plastic mulch film. […]
After the set contact time with the soil the film sample is removed, moisture is dabbed off, loose dirt is brushed off and then the sample is dried at 60 C in an oven for 10 min. After drying the sample is cut into 100 small squares (each about 7.5 by 7.5 mm), placed in a small glass flask with 5 gram of Methanol and a magnetic stir bar. The flask is capped, stirred for 4 hours and the methanolic solution is then analyzed by HPLC. The difference between the initial and remaining amount of pesticide is released to the soil during the set time. The lowest concentration of analyte that can be determined with an acceptable repeatability and trueness by the method is 0.025 mg/m^2=0.25 g/ha Limit of quantitation (LoQ).

[2] = cited from earlier work
[3] = Example 4 material, 0 days (initial content)
[4] = Example 4 material, 7 days on humid soil
[5] = Example 4 material, 14 days on humid soil
[6] = Example 4 material, 21 days on humid soil
[7] = Example 3 material, 0 days (initial content)
[8] = Example 3 material, 7 days on humid soil
[9] = Example 3 material, 14 days on humid soil
[10] = Example 3 material, 21 days on humid soil
[11] = Example 1 material, 0 days (initial content)
[12] = Example 1 material, 7 days on humid soil
[13] = Example 1 material, 14 days on humid soil
[14] = Example 1 material, 21 days on humid soil
[15] = Example 2 material, 0 days (initial content)
[16] = Example 2 material, 7 days on humid soil
[17] = Example 2 material, 14 days on humid soil
[18] = Example 2 material, 21 days on humid soil
[19] = Example 5 material, 0 days (initial content)
[20] = Example 5 material, 7 days on humid soil
[21] = Example 5 material, 14 days on humid soil
[22] = Example 5 material, 21 days on humid soil

SMILES | Pesticide content of fumigant-free soil disinfestation materials after set time on Soil [1, 3] [g/ha] | Pesticide content of fumigant-free soil disinfestation materials after set time on Soil [1, 4] [g/ha] | Pesticide content of fumigant-free soil disinfestation materials after set time on Soil [1, 5] [g/ha] | Pesticide content of fumigant-free soil disinfestation materials after set time on Soil [1, 6] [g/ha] | Pesticide content of fumigant-free soil disinfestation materials after set time on Soil [1, 7] [g/ha] | Pesticide content of fumigant-free soil disinfestation materials after set time on Soil [1, 8] [g/ha] | Pesticide content of fumigant-free soil disinfestation materials after set time on Soil [1, 9] [g/ha] | Pesticide content of fumigant-free soil disinfestation materials after set time on Soil [1, 10] [g/ha] | Pesticide content of fumigant-free soil disinfestation materials after set time on Soil [1, 11] [g/ha] | Pesticide content of fumigant-free soil disinfestation materials after set time on Soil [1, 12] [g/ha] | Pesticide content of fumigant-free soil disinfestation materials after set time on Soil [1, 13] [g/ha] | Pesticide content of fumigant-free soil disinfestation materials after set time on Soil [1, 14] [g/ha] | Pesticide content of fumigant-free soil disinfestation materials after set time on Soil [1, 15] [g/ha] | Pesticide content of fumigant-free soil disinfestation materials after set time on Soil [1, 16] [g/ha] | Pesticide content of fumigant-free soil disinfestation materials after set time on Soil [1, 17] [g/ha] | Pesticide content of fumigant-free soil disinfestation materials after set time on Soil [1, 18] [g/ha] | further results
O=S(=O)(CCC(F)=C(F)F)c1ncc(Cl)s1 [Fluensulfone] | 2807 | 0 | 0 | 0 |  |  |  |  |  |  |  |  |  |  |  |  | 
CC(C)(C)C(O)(CCc1ccc(Cl)cc1)Cn1cncn1 (stereo not shown) [Tebuconazole] |  |  |  |  | 954 | 125 | 45 | 8 |  |  |  |  |  |  |  |  | 
Cc1nn(-c2cc(NS(C)(=O)=O)c(Cl)cc2Cl)c(=O)n1C(F)F [Sulfentrazone] |  |  |  |  | 202 | 15 | 0 | 0 |  |  |  |  |  |  |  |  | 
N#Cc1c[nH]cc1-c1cccc2c1OC(F)(F)O2 [Fludioxonil] |  |  |  |  |  |  |  |  | 244 | 57 | 23 | 0 | 244 | 53 | 17 | 0 | Water solubility [2]: hardly water soluble; Release from coated film in lab release test (FIG. 3) ([1]; at 7, 14 and 21 days, before planting): complete release
CO/C=C(/C(=O)OC)c1ccccc1Oc1cc(Oc2ccccc2C#N)ncn1 [Azoxystrobin] |  |  |  |  |  |  |  |  | 96 | 12 | 0 | 0 | 96 | 9 | 0 | 0 | Pesticide content of fumigant-free soil disinfestation materials after set time on Soil [1, 19]: 10 g/ha; Pesticide content of fumigant-free soil disinfestation materials after set time on Soil [1, 20]: 0 g/ha; Pesticide content of fumigant-free soil disinfestation materials after set time on Soil [1, 21]: 0 g/ha; Pesticide content of fumigant-free soil disinfestation materials after set time on Soil [1, 22]: 0 g/ha
COC(=O)c1c(Cl)nn(C)c1S(=O)(=O)NC(=O)Nc1nc(OC)cc(OC)n1 [Halosulfuron-methyl] |  |  |  |  | 35 | 0 | 0 | 0 | 35 | 0 | 0 | 0 | 35 | 0 | 0 | 0 | Pesticide content of fumigant-free soil disinfestation materials after set time on Soil [1, 19]: 40 g/ha; Pesticide content of fumigant-free soil disinfestation materials after set time on Soil [1, 20]: 0 g/ha; Pesticide content of fumigant-free soil disinfestation materials after set time on Soil [1, 21]: 0 g/ha; Pesticide content of fumigant-free soil disinfestation materials after set time on Soil [1, 22]: 0 g/ha
CSc1nnc(C(C)(C)C)c(=O)n1N [Metribuzin] | 375 | 0 | 0 | 0 |  |  |  |  |  |  |  |  |  |  |  |  | 
O=C(NCc1ncc(C(F)(F)F)cc1Cl)c1c(Cl)cccc1Cl [Fluopicolide] | 450 | 60 | 30 | 15 |  |  |  |  |  |  |  |  |  |  |  |  | 
CCc1cccc(C)c1N(C(=O)CCl)[C@@H](C)COC [s-metolachlor] | 800 | 5 | 0 | 0 |  |  |  |  |  |  |  |  |  |  |  |  | 
COCC(=O)N(c1c(C)cccc1C)C(C)C(=O)OC (stereo not shown) [Metalaxyl] |  |  |  |  |  |  |  |  | 936 | 12 | 1 | 0 | 936 | 15 | 0 | 0 | 
O=C(NCCc1ncc(C(F)(F)F)cc1Cl)c1ccccc1C(F)(F)F [Fluopyram] |  |  |  |  | 91 | 0 | 0 | 0 |  |  |  |  |  |  |  |  | Pesticide content of fumigant-free soil disinfestation materials after set time on Soil [1, 19]: 350 g/ha; Pesticide content of fumigant-free soil disinfestation materials after set time on Soil [1, 20]: 14 g/ha; Pesticide content of fumigant-free soil disinfestation materials after set time on Soil [1, 21]: 0 g/ha; Pesticide content of fumigant-free soil disinfestation materials after set time on Soil [1, 22]: 0 g/ha
CNC(=O)O/N=C(\SC)C(=O)N(C)C [Oxamyl] |  |  |  |  |  |  |  |  | 1800 | 0 | 0 | 0 | 1800 | 0 | 0 | 0 | 
COCC(=O)N(c1c(C)cccc1C)[C@H](C)C(=O)OC [Mefenoxam] | 281 | 19 | 0 | 0 |  |  |  |  |  |  |  |  |  |  |  |  | 
CON=C(C(=O)OC)c1ccccc1CON=C(C)c1cccc(C(F)(F)F)c1 [Trifloxystrobin] |  |  |  |  | 238 | 65 | 35 | 3 |  |  |  |  |  |  |  |  | 
